Reference: patent US7399493B2, “Anti-irritant botanicals” (priority 2004, dated 2008)

Legend:
[1] = tested on: irritating action of alpha-hydroxy acids (lactic and glycolic acids); conditions: Rosmarinic acid 5%; cited from earlier work
HaCat keratinocytes = assay: Retinoid-stimulated autocrine (RSA) clonal growth assay; type: cell-based, human; conditions: 10 μM, 48 hours after treatment, relative to untreated control
Procedure: Since retinoids irritate skin leading to epidermal hyperplasia, it is the inventors idea that plant extracts that act as inhibitors of retinoid -stimulated autocrine growth are themselves anti-irritants. This hypothesis was tested using an in vitro keratinocyte culture model.
An immortalized line of human epidermal kertatinocytes, HaCat keratinocytes, can be cultured in a serum-free culture medium. Sterile Petri dishes (35 mm^2) are seeded at 5,000 cells per cm^2 and placed in a humidified CO2 incubator at 37° C. for 3-5 days or until the culture reaches about 30% confluent monolayer growth. The dishes are washed once with ice-cold serum-free media lacking EGF and insulin, and refed 2.5 ml of serum-free culture medium containing 5 ug/ml insulin and retinyl acetate (RA, 3×10^−8 M).—Duplicate control dishes are fixed and stained with 0.2% crystal violet to record the—amount of clonal growth prior to refeeding with fresh RA-containing medium. Test—dishes refed RA and insulin are split into three groups in duplicate. Group A is refed on the RA plus insulin medium. Group B is refed RA plus insulin medium and a TRK inhibitor (PD 15356), and Group C is refed medium containing RA plus insulin and from 0.1 to 5% of a hydroalcoholic botanical extract. All dishes are adjusted to have the same final concentration of alcohol (1%). All dishes are placed back in the incubator for 2 and 4 days. […]

SMILES | reduction of the irritating action of alpha-hydroxy acids [1] | inhibition of RSA clonal growth (HaCat keratinocytes)
O=C(/C=C/c1ccc(O)c(O)c1)O[C@H](Cc1ccc(O)c(O)c1)C(=O)O [Rosmarinic acid] | reduce by more than three-fold | 
O.O.O=c1c(O)c(-c2ccc(O)c(O)c2)oc2cc(O)cc(O)c12 [quercetin dihydrate] |  | completely inhibited
